Measured values reported in PMC10610545, “Preclinical Evaluation of an Imidazole-Linked Heterocycle for Alzheimer’s Disease” (Pharmaceutics, 2023).

Key:
[1] = biological target: α2-adrenergic receptor (α2-AR); assay: Competition binding against [3H]RX821002, membranes from post-mortem human frontal cortex
From the text: (§1) The inhibition constant (Ki) for each compound was obtained and is expressed as the corresponding pKi. The selectivity for these two receptors was expressed by the I2/α2 index, calculated as the antilogarithm of the […] between pKi values for I2-IR and pKi values for α2-AR.
(§2) Preparation of cellular membranes.
(§3) Human brain samples were obtained at autopsy in the Basque Institute of Legal Medicine, Bilbao, Spain. Samples from the prefrontal cortex (Brodmann’s area 9) were dissected at the time of autopsy and immediately stored at -70 °C until assay. The study was developed in compliance with policies of research and ethical review boards for postmortem brain studies.
(§4) To obtain cellular membranes (P2 fraction) the different samples were homogenized using an ultraturrax in 10 volumes of homogenization buffer (0.25 M sucrose, 5 mM Tris–HCl, pH 7.4).
(§5) The crude homogenate was centrifuged for 5 min at 1000 g (4 °C) and the supernatant was centrifuged again for 10 min at 40,000 g (4 °C). The resultant pellet was washed twice in 5 volumes of homogenization buffer and recentrifuged in similar conditions. Protein content was measured according to the method of Bradford using BSA as standard.
(§6) Competition Binding Assays.
(§7) The pharmacological activity of the compounds was evaluated through competition binding studies against the I2-IR selective radioligand [3H]2-BFI or the α2-adrenergic receptor selective radioligand [3H]RX821002. Specific binding was measured in 0.25 mL aliquots (50 mM Tris-HCl, pH 7.5) containing 100 µg of membranes, which were incubated in 96-well plates either with […]
(§8) Incubations were terminated by separating free ligand from bound ligand by rapid filtration […]
(§9) counted for radioactivity by liquid scintillation spectrometry using a MicroBeta TriLux counter (PerkinElmer). Specific binding was determined and plotted as a function of the compound concentration. Nonspecific binding was determined in the presence of idazoxan (10–5 M), a compound with well stablished affinity for I2-IR and α2-adrenergic receptors, in [3H]2-BFI and [3H]RX821002 assays. To obtain the inhibition constant (Ki) analyses of competition experiments were performed by nonlinear regression using the GraphPad Prism program. Ki values were normalized to pKi values. I2-IR/α2 selectivity index was calculated as the antilogarithm of the difference between pKi values for I2-IR and pKi values for α2-ARs.

[2] = tested on: imidazoline I2 receptors (I2-IR); assay: Competition binding against [3H]2-BFI, membranes from post-mortem human frontal cortex; settings: for Ki: corresponds to pKiH, read-out: Ki of the high-affinity I2 site; for [3H]-2-BFI I2 pKi (One Site): monophasic fit; for [3H]-2-BFI I2 pKi (Two Sites), high affinity (pKiH) / [3H]-2-BFI I2 pKi (Two Sites), low affinity (pKiL): two-site model; for [3H]-2-BFI I2 pKi (Two Sites), high affinity (pKiH): high-affinity site; for [3H]-2-BFI I2 pKi (Two Sites), low affinity (pKiL): low-affinity site
From the text: as §1, §2, §3, §4, §5, §6, §7, §8, §9

[3] = tested on: 5XFAD mice; assay: Novel object recognition test (NORT) in 5XFAD mice; assay type: in vivo, mouse; settings: 2 mg/Kg in drinking water, 4 weeks, vs 5XFAD Control
Experimental: (§10) Four-month-old female and male Wt and 5XFAD mice (n = 32) were used to carry out cognitive and molecular analyses. […] The animals had free access to food and water and were kept under standard temperature conditions (22 ± 2 °C) and 12 h/12 h light/dark cycles (300 lx/0 lx). […] After 4 weeks of treatment, cognitive tests, including short- and long-term memory and OLT, were performed to study the effects of treatment on learning and memory. Weight and water consumption were controlled each week, and the LSL33 concentration was adjusted accordingly to reach the optimal dose until euthanasia.
Short- and long-term recognition memories involving cortical areas and the hippocampus were evaluated by NORT. The experimental apparatus used for this test was a 90-degree, two-arm, 25-cm-long, 20-cm-high maze of black polyvinyl chloride. The light intensity in the middle of the field was 30 lux. First, mice were individually habituated to the apparatus for 10 min per day for 3 days. On day 4, the animals were allowed to freely explore two identical objects (A and A or B and B) placed at the end of each arm for a 10 min acquisition trial (first trial-familiarization). […] During the short-term memory retention test, the time that the animal spent exploring the new object (TN) and the old object (TO) was recorded. […] TN and TO were measured from the video recordings from each trial session. […]

[4] = tested on: PSD95; assay: Western blot of hippocampal PSD95 in 5XFAD mice; assay type: in vivo, mouse; settings: 5XFAD hippocampus, 2 mg/Kg, vs 5XFAD Control
Experimental: as §10
Three days after cognitive tests, mice were euthanized for protein extraction and RNA and DNA isolation. After euthanasia, the brains were immediately removed from the skulls, and the hippocampi were dissected, frozen, and maintained at −80 °C.
For western blotting (WB), aliquots of 20 μg of hippocampal protein were used. […]
The membranes were washed and incubated with secondary antibodies for 1 h at room temperature. […] Protein loading was routinely monitored by immunodetection of glyceraldehyde-3-phosphate dehydrogenase (GAPDH).
Figure 7 Results from an in vivo study of synaptic plasticity markers. (A) Representative protein levels and quantification by WB for PSD95. (B,C) Representative gene expression for Ngf and Bdnf Gene expression levels were determined by real-time PCR. […]

[5] = tested on: I2-IR; settings: rat cerebral cortex, 1 µM yohimbine; >50% considered significant

Row | SMILES | [3H]-RX821002 α2 pKi [1] | Selectivity I2/α2 ([2]; antilog (pKi I2-IR − pKi α2-AR)) | Ki [2] | [3H]-2-BFI I2 pKi (One Site) [2] | [3H]-2-BFI I2 pKi (Two Sites), high affinity (pKiH) [2] | [3H]-2-BFI I2 pKi (Two Sites), low affinity (pKiL) [2] | NORT discrimination index, short- and long-term memory [3] | PSD95 protein levels [4] | inhibition of [3H]idazoxan binding [5]
1 | c1ccc2oc(-c3ncc[nH]3)cc2c1 [LSL60101, reference compound] | 3.18 ± 0.17 | 3090 | 6.7 nM | 6.67 ± 0.09 | 8.17 ± 0.19 | 6.02 ± 0.10 | – | – | –
2 | Cl.c1ccc2sc(-c3ncc[nH]3)cc2c1 [LSL33, 2-(Benzo[b]thiophene-2-yl)-1H-imidazole hydrochloride] | 4.70 ± 0.12 | – | 0.079 nM | 5.95 ± 0.24 | 10.1 ± 0.57 | 5.68 ± 0.25 | significant improvement in cognitive impairment in both short- and long-term memories | increase in PSD95 | 84%
3 | Cl.c1ccc2oc(-n3ccnc3)cc2c1 [LSL34, 1-(Benzofuran-2-yl)-1H-imidazole hydrochloride] | – | – | – | 5.58 ± 0.31 | 9.23 ± 0.36 | – | – | – | 53%
